Structures can show the parent of a compound that is named as a salt. Where two headings read alike, the source gives them in different places.
How the values were obtained:
[1] = test system: ERK1/2 (Thr202/Tyr204) phosphorylation in KYSE520 cells; test: Cellular Phospho-p44/42 MAPK (Erk 1/2) (Thr202/Tyr204) Assay (In-Cell Western); type: cell-based; details: Homo sapiens, KYSE-520, 1 h, read-out: Biological Example 2 IC50 (nM)
Protocol: KYSE520 cells were obtained from DSMZ and grown in RPMI supplemented with 10% fetal bovine serum, pennicillin/streptomycin, 2 mM L-alanyl-L-glutamine dipeptide in 0.85% NaCl (Glutamax™), non-essential amino acids, and sodium pyruvate. Cells were plated in 96-well plates at 30,000 cells/well and allowed to attach overnight at 37° C./5% CO2. Cells were treated with compounds prepared as a 10-point, 1:3 dilution series (range: 20 μM-1 nM), with a final DMSO concentration of 0.5%. After 1 hour incubation, cells were fixed in 3.7% formaldehyde in Dulbecco's phosphate-buffered saline (“dPBS”) at room temperature for 20 minutes. Cells were then washed with dPBS and permeabilized in 100% MeOH at room temperature for 10 minutes. Following permeabilization, cells were washed in dPBS and incubated in LI-COR Blocking Buffer (LI-COR Biosciences, Cat #927-40000) for 1 hour or longer. Plates were then incubated with an antibody specific for the MEK-dependent ERK1/2 phosphorylation sites, threonine 202 and tyrosine 204 (Cell Signaling Technologies; Cat #9101), downstream of SHP2 in the MAP kinase signal transduction pathway, as well as GAPDH (Millipore; Cat #MAB374). pErk1/2 (Thr202/Tyr204) antibody was diluted in LI-COR blocking buffer containing 0.05% polysorbate-20 (Tween-20) at 1:250; GAPDH was diluted at 1:2,500. The plates were incubated overnight at 4° C. After washing with PBS/0.05% Tween-20, the cells were incubated with fluorescently-labeled secondary antibodies (Anti-rabbit-Alexa Flour680, Invitrogen Cat #A21109; Anti-mouse-IRDye800CW, Li-cor Bioscieces Cat #926-32210, both at 1:1000 dilution) for 1 hour. Cells were then washed, as above, and analyzed for fluorescence at both 680 nm and 800 nm wavelengths using the Aerius Infrared Imaging System (LI-COR Biosciences, Model 9250). Phosphorylated Erk1/2 (Thr202/Tyr204) signal was normalized to GAPDH signal for each well. IC50 values were calculated from the normalized values using a 4-parameter fit in BioAssay software. […] The reported IC50 in Table 2 may be from a single assay or the mean of multiple assays.

[2] = target: T1, full-length SHP2 (His6-tagged SHP2(2-527)) (Homo sapiens, UniProt Q06124); test: SHP2 Enzymatic Assay (fluorescence intensity kinetic assay, DiFMUP hydrolysis); type: biochemical
T1 construct: His6-tagged SHP2(2-527); His6; made in house; host or cells: E. coli
Method in brief: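 1 nM His6-SHP2(2-527), activated by 1 μM bis-phosphopeptide, hydrolysed 50 μM DiFMUP in 25 mM HEPES pH 7.4 with 1 mM DTT, 50 mM KCl and 2% DMSO. DiFMU fluorescence (Ex 355/Em 460 nm) was read kinetically for 15 min at ambient temperature.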

[3] = full-length SHP2 with 1 μM activating peptide, 50 μM DiFMUP, single assay or mean of multiple assays, read-out: Biological Example 1 IC50

T1 sequence (Q06124 2-527): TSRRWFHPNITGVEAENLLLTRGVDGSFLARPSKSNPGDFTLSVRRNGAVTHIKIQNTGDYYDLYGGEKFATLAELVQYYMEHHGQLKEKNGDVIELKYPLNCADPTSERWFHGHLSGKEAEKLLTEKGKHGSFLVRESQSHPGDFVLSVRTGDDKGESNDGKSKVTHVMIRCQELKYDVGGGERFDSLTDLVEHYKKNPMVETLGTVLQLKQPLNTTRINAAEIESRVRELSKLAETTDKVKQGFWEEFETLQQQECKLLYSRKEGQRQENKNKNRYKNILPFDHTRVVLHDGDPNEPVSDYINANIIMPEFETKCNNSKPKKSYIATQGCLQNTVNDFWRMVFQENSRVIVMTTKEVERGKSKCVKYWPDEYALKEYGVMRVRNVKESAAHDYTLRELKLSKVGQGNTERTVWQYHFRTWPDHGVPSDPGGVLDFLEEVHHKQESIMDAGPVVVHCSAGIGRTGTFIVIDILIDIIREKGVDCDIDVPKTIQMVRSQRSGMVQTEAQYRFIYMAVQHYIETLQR

With C[C@@H]1OCC2(CCN(c3cnc4nc(Sc5cccc(Cl)c5Cl)ccc4n3)CC2)[C@@H]1N [Example 4, (3S,4S)-8-(6-((2,3-dichlorophenyl)thio)pyrido[2,3-b]pyrazin-2-yl)-3-methyl-2-oxa-8-azaspiro[4,5]decan-4-amine] the IC50 [1] was 550 nM and the IC50 [2] was 64 nM.
N[C@@H]1c2ccccc2CC12CCN(c1cnc3nc(Sc4ccnc5c4C(F)(F)C(=O)N5)ccc3n1)CC2 [Example 142, (S)-4-((2-(1-amino-1,3-dihydrospiro[indene-2,4′-piperidin]-1′-yl)pyrido[2,3-b]pyrazin-6-yl)thio)-3,3-difluoro-1,3-dihydro-2H-pyrrolo[2,3-b]pyridin-2-one] showed an IC50 [1] of 4 nM and an IC50 [2] of 26 nM.
Work on CN[C@H]1CCCN(c2cnc3nc(Sc4ccnc(N)c4Cl)ccc3n2)CC1 [Example 91, (S)-1-(6-((2-amino-3-chloropyridin-4-yl)thio)pyrido[2,3-b]pyrazin-2-yl)-N-methylazepan-4-amine] yielded an IC50 [1] of 317 nM and an IC50 [2] of 106 nM.
N[C@@H]1c2cccnc2CC12CCN(c1cnc3nc(Sc4ccnc(N5CC[C@H](CO)C5)c4Cl)ccc3n1)CC2 [Example 210, ((S)-1-(4-((2-((S)-5-amino-5,7-dihydrospiro[cyclopenta[b]pyridine-6,4′-piperidin]-1′-yl)pyrido[2,3-b]pyrazin-6-yl)thio)-3-chloropyridin-2-yl)pyrrolidin-3-yl)methanol] was tested, and the IC50 [1] was 16 nM and the IC50 [2] was 63 nM.
In the case of C[C@@H]1OCC2(CCN(c3cnc4nc(Sc5ccnc(N)c5Cl)ccc4n3)CC2)[C@@H]1N [Example 13, (3S,4S)-8-(6-((2-amino-3-chloropyridin-4-yl)thio)pyrido[2,3-b]pyrazin-2-yl)-3-methyl-2-oxa-8-azaspiro[4,5]decan-4-amine], the IC50 [1] is reported as 79 nM and the IC50 [2] is reported as 84 nM.
Work on C[C@@H]1OCC2(CCN(c3cnc4nc(Sc5ccnc6[nH]ccc56)ccc4n3)CC2)[C@@H]1N [Example 189, (3S,4S)-8-(6-((1H-pyrrolo[2,3-b]pyridin-4-yl)thio)pyrido[2,3-b]pyrazin-2-yl)-3-methyl-2-oxa-8-azaspiro[4.5]decan-4-amine] yielded an IC50 [1] of 98 nM and an IC50 [2] of 59 nM.
C[C@@H]1OCC2(CCN(c3cnc4nc(Sc5ccnc(N6CCC[C@H]6CO)c5Cl)ccc4n3)CC2)[C@@H]1N [Example 71, ((S)-1-(4-((2-((3S,4S)-4-amino-3-methyl-2-oxa-8-azaspiro[4.5]decan-8-yl)pyrido[2,3-b]pyrazin-6-yl)thio)-3-chloropyridin-2-yl)pyrrolidin-2-yl)methanol] was tested, and the IC50 [1] was 176 nM and the IC50 [2] was 120 nM.
Nc1nccc(Sc2ccc3nc(N4CCC5(CC4)Cc4ccccc4[C@H]5N)cnc3n2)c1Cl [Example 76, (S)-1′-(6-((2-amino-3-chloropyridin-4-yl)thio)pyrido[2,3-b]pyrazin-2-yl)-1,3-dihydrospiro[indene-2,4′-piperidin]-1-amine] gave an IC50 [1] of 8 nM and an IC50 [2, 3] of 28 nM.
Nc1nccc(Sc2ccc3nc(N4CCC5(CC4)Cc4ncc(F)cc4[C@H]5N)cnc3n2)c1Cl [Example 117, (S)-1′-(6-((2-amino-3-chloropyridin-4-yl)thio)pyrido[2,3-b]pyrazin-2-yl)-3-fluoro-5,7-dihydrospiro[cyclopenta[b]pyridine-6,4′-piperidin]-5-amine] gave an IC50 [1] of 6 nM and an IC50 [2, 3] of 50 nM.
In the case of N[C@@H]1c2cccnc2CC12CCN(c1cnc3nc(Sc4ccnc(NCCO)c4Cl)ccc3n1)CC2 [Example 108, (S)-2-((4-((2-(5-amino-5,7-dihydrospiro[cyclopenta[b]pyridine-6,4′-piperidin]-1′-yl)pyrido[2,3-b]pyrazin-6-yl)thio)-3-chloropyridin-2-yl)amino)ethan-1-ol], the IC50 [1] is reported as 11 nM and the IC50 [2] is reported as 84 nM.
CC1(N)CCN(c2cnc3nc(Sc4ccnc(N)c4Cl)ccc3n2)CC1 [Example 1, 4-((2-(4-amino-4-methylpiperidin-1-yl)pyrido[2,3-b]pyrazin-6-yl)thio)-3-chloropyridin-2-amine] was tested, and the IC50 [1] was 59 nM and the IC50 [2, 3] was 33 nM.
In the case of Cc1ccc2c(c1)[C@@H](N)C1(CCN(c3cnc4nc(Sc5ccnc(N)c5Cl)ccc4n3)CC1)C2 [Example 178, (S)-1′-(6-((2-amino-3-chloropyridin-4-yl)thio)pyrido[2,3-b]pyrazin-2-yl)-6-methyl-1,3-dihydrospiro[indene-2,4′-piperidin]-1-amine], the IC50 [1] is reported as 17 nM and the IC50 [2, 3] is reported as 57 nM.
With Cc1nccc(Sc2ccc3nc(N4[C@H]5CC[C@H]4CC(N)C5)cnc3n2)c1Cl (stereo partly drawn) [Example 67, (1R,3s,5S)-8-(6-((3-chloro-2-methylpyridin-4-yl)thio)pyrido[2,3-b]pyrazin-2-yl)-8-azabicyclo[3.2.1]octan-3-amine dihydrochloride] the IC50 [1] was 48 nM and the IC50 [2] was 42 nM.
For N[C@@H]1c2cccnc2CC12CCN(c1cnc3nc(Sc4cccnc4C(F)(F)F)ccc3n1)CC2 [Example 163, (S)-1′-(6-((2-(trifluoromethyl)pyridin-3-yl)thio)pyrido[2,3-b]pyrazin-2-yl)-5,7-dihydrospiro[cyclopenta[b]pyridine-6,4′-piperidin]-5-amine], the IC50 [1] was 30 nM and the IC50 [2] was 52 nM.
In the case of C[C@@H]1OCC2(CCN(c3cnc4nc(Sc5ccnc(NCCO)c5Cl)ccc4n3)CC2)[C@@H]1N [Example 185, 2-((4-((2-((3S,4S)-4-amino-3-methyl-2-oxa-8-azaspiro[4.5]decan-8-yl)pyrido[2,3-b]pyrazin-6-yl)thio)-3-chloropyridin-2-yl)amino)ethan-1-ol], the IC50 [1] is reported as 166 nM and the IC50 [2] is reported as 408 nM.
Cc1nccc(Sc2ccc3nc(N4CCC(N)(CO)CC4)cnc3n2)c1Cl [Example 57, (4-amino-1-(6-((3-chloro-2-methylpyridin-4-yl)thio)pyrido[2,3-b]pyrazin-2-yl)piperidin-4-yl)methanol] showed an IC50 [1] of 91 nM and an IC50 [2] of 49 nM.
Work on CNc1nccc(Sc2ccc3nc(N4CCC5(CC4)CO[C@@H](C)[C@H]5N)cnc3n2)c1Cl [Example 33, (3S,4S)-8-(6-((3-chloro-2-(methylamino)pyridin-4-yl)thio)pyrido[2,3-b]pyrazin-2-yl)-3-methyl-2-oxa-8-azaspiro[4.5]decan-4-amine] yielded an IC50 [1] of 80 nM and an IC50 [2] of 100 nM.
With Nc1ncc(Sc2ccc3nc(N4CCC5(CC4)Cc4ccccc4[C@H]5N)cnc3n2)c(Cl)c1Cl [Example 119, (S)-1′-(6-((6-amino-4,5-dichloropyridin-3-yl)thio)pyrido[2,3-b]pyrazin-2-yl)-1,3-dihydrospiro[indene-2,4′-piperidin]-1-amine] the IC50 [2] was 39 nM.
With CC1(N)CCCN(c2cnc3nc(Sc4ccnc(N)c4Cl)ccc3n2)CC1 (centres unmarked) [Example 73, 1-(6-((2-amino-3-chloropyridin-4-yl)thio)pyrido[2,3-b]pyrazin-2-yl)-4-methylazepan-4-amine] the IC50 [2] was 35 nM.
Cc1nccc(Sc2ccc3nc(N4CCC5(CC4)CO[C@@H](C)[C@H]5N)cnc3n2)c1C [Example 174, (3S,4S)-8-(6-((2,3-dimethylpyridin-4-yl)thio)pyrido[2,3-b]pyrazin-2-yl)-3-methyl-2-oxa-8-azaspiro[4.5]decan-4-amine] was tested, and the IC50 [2] was 335 nM.
Cc1nc2nc(Sc3cccc(Cl)c3Cl)ccc2nc1N1CCC(C)(N)CC1 [Example 120, 1-(6-((2,3-dichlorophenyl)thio)-3-methylpyrido[2,3-b]pyrazin-2-yl)-4-methylpiperidin-4-amine] gave an IC50 [2] of 633 nM.
